Measurements taken from PMC5437114, “Exploring Pharmacological Mechanisms of Lavender (Lavandula angustifolia) Essential Oil on Central Nervous System Targets” (Frontiers in Pharmacology, 2017).

Molecular target: T1, serotonin transporter (SERT) (Rattus norvegicus, UniProt P31652)
T1 construct: 225 μl of rat cortex suspension; from tissue; host or cells: rat (Sprague Dawley) brain cortex homogenate
Test: Serotonin transporter assay ([3H]-citalopram binding assay)
Conditions: rat cortex

T1 sequence (P31652 whole entry): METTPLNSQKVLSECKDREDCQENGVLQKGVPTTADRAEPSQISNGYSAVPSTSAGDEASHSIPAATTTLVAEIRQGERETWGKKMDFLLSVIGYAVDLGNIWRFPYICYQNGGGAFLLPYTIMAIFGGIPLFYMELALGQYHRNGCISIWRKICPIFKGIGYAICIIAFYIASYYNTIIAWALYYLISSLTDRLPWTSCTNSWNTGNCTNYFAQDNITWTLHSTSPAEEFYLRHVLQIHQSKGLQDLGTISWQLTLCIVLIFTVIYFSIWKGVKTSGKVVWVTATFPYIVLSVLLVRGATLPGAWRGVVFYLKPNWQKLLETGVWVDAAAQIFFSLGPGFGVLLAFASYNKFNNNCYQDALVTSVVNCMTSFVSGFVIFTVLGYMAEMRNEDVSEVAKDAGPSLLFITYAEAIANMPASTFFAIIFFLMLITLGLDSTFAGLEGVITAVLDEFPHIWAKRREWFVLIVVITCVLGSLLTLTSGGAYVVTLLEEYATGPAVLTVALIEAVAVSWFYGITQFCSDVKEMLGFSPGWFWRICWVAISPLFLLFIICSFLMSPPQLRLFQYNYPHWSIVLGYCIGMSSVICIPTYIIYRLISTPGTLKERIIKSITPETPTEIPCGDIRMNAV

| Structure (SMILES) | Activity in the SERT assay (displacement of 3H-citalopram), in words |
| --- | --- |
| C=CC(C)(O)CCC=C(C)C (centres unmarked) [Linalool, linalool] | effect was also detected |
| C=CC(C)(CCC=C(C)C)OC(C)=O (centres unmarked) [Linalyl acetate, linalyl acetate] | did not show affinity |
